The source of these data is patent US9051339B2, “Sulfur-containing bicyclic compound” (Astellas Pharma Inc., priority 2013, dated 2015).

Structures can show the parent of a compound that is named as a salt.

In this assay the target is T1, GABAB receptor (Mus musculus, UniProt Q80T41+Q9WV18).
T1 construct: a mouse brain cortex membrane (4 μg); tissue Japan SLC, Inc. (ddY mice); host or cells: mouse brain cortex membrane
Nature of the assay: [35S]GTPγS binding test for PAM action, mouse brain cortical membrane. Format: biochemical. The settings on record: 100 μM GABA = 100%; for EC50: concentration raising reaction rate from 20% with 0.3 μM GABA to 50%, mouse brain cortex membrane, read-out: Potency (PAM Potency of GABAB); for Emax: read-out: Efficacy (PAM Efficacy of GABAB). As to the method:
The function of the GABAB receptor of the compound of the present invention was evaluated using a [^35S] GTPγS binding test. This method is used for the detection of the PAM action of the compound on the GABAB receptor (Journal of Pharmacology and Experimental Therapeutics, 2003, vol. 307(1), p. 322-330; and Molecular Pharmacology, 2001, vol. 60(5), p. 963-971).
The mouse brain cortical membrane was prepared with reference to a method for preparing a rat brain membrane (European Journal of Pharmacology, 1990, vol. 187 (1), p. 27-38).
The cortex (about 30 g) was cut out of the brains of 90 ddY mice (Japan SLC, Inc.). An A buffer was added to the cortex (cortex/A buffer=about 1:3 (wt/vol)), and homogenized with a glass Teflon-lined homogenizer (Teflon: registered trademark) on ice. The homogenate was centrifuged (750 g, 10 min, 4° C.) and a supernatant was then obtained. An A buffer (90 mL) was added to pellets and homogenized on ice, and a supernatant (750 g, 10 min, 4° C.) was then obtained. By repeating this operation, the supernatant was collected.
The supernatant was centrifuged (18000 g, 15 min, 4° C.). Ultrapure water (54 mL) was added to the pellets, left to stand for 30 min on ice, and then centrifuged (39000 g, 20 min, 4° C.). The pellets were suspended in a KH buffer (54 mL), repeatedly frozen and thawed, and centrifuged (18000 g, 15 min) at 4° C. The buffer was added to the pellets and then frozen and thawed, and this operation was repeated until the centrifugation. By a Bradford method using a protein assay (Protein assay CBB solution; Nacalai Tesque, Inc.), a KH buffer suspension of the pellet was prepared at a protein concentration of 10 mg/mL.
The PAM action of the GABAB receptor in the mouse brain cortex of a test drug was evaluated. To each of wells of a 96-well microplate, a test drug diluted with a B buffer at each concentration (3 nM to 30 μM), a mouse brain cortex membrane (4 μg), [^35S] GTPγS (final concentration of 0.34 nM, Muromachi Yakuhin Co., Ltd.; Institute of Isotopes Co., Ltd.), GABA (final concentration of 0.3 μM; Sigma) were added in this order, followed by standing at room temperature for 1 hour. With a harvester (Filtermate, Perkin-Elmer, Inc.), the suspension was suction-filtered through a glass filter (UniFilter 96-well GF/B filter plates, Perkin-Elmer, Inc.). The glass filter was washed with a C buffer that had been ice-cooled. After drying the glass filter, a liquid scintillation cocktail (50 μL, MicroScinti-PS; PerkinElmer, Inc.) was added to each well. The amount of [^35S] GTPγS bound to the membrane was measured on a plate reader (TopCount, PerkinElmer, Inc.).
The maximum reaction rate of 100 μM GABA was taken as 100%. […] At a time when the test drug was not added, the concentration of the test drug that increased the reaction rate from 20% with 0.3 μM GABA to 50% was taken as a PAM Potency (μM) of the GABAB of the test drug. In the presence of 0.3 μM GABA, the maximum reaction rate of the effect on the GABAB receptor when the test drug was administered up to maximum 30 μM was taken as a PAM Efficacy (%) of the GABAB of the test drug.
The Potency and Efficacy of several representative Example Compounds of the present invention are shown in Table below (In the Table, Ex represents Example Compound No. The “Potency” represents the PAM Potency of GABAB of the test drug, and the “Efficacy” represents PAM Efficacy (%) of GABAB of the test drug. These shall apply hereinafter).
In general terms: GTPγS resists hydrolysis and so accumulates on activated G proteins.

[1] abbreviates: maximum reaction rate in presence of 0.3 μM GABA, test drug up to 30 μM.

T1 sequence (Q9WV18 20-960): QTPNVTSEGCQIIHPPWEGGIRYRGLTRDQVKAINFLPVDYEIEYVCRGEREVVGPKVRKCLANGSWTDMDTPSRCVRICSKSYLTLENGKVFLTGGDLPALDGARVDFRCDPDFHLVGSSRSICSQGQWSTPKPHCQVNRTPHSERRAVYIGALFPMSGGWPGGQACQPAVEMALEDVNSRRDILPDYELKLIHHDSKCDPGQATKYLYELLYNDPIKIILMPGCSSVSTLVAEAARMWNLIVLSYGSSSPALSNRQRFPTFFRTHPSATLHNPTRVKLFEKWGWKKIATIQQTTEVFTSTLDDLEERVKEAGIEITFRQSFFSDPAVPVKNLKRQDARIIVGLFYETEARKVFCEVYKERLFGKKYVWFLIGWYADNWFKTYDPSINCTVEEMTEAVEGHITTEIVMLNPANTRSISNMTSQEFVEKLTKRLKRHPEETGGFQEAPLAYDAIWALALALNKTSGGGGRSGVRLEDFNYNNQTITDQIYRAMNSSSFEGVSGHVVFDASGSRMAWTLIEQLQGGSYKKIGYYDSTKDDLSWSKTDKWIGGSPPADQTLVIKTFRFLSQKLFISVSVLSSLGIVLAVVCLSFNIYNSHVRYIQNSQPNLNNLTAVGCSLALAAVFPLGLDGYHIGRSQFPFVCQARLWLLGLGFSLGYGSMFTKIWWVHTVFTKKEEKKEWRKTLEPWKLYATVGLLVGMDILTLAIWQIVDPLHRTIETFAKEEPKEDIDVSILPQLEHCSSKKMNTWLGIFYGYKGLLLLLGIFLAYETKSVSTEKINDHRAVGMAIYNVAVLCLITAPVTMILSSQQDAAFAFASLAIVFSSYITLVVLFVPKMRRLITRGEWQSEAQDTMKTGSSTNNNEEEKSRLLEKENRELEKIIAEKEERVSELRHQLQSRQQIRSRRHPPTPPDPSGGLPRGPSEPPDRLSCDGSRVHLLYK
T1 sequence (Q80T41 41-940): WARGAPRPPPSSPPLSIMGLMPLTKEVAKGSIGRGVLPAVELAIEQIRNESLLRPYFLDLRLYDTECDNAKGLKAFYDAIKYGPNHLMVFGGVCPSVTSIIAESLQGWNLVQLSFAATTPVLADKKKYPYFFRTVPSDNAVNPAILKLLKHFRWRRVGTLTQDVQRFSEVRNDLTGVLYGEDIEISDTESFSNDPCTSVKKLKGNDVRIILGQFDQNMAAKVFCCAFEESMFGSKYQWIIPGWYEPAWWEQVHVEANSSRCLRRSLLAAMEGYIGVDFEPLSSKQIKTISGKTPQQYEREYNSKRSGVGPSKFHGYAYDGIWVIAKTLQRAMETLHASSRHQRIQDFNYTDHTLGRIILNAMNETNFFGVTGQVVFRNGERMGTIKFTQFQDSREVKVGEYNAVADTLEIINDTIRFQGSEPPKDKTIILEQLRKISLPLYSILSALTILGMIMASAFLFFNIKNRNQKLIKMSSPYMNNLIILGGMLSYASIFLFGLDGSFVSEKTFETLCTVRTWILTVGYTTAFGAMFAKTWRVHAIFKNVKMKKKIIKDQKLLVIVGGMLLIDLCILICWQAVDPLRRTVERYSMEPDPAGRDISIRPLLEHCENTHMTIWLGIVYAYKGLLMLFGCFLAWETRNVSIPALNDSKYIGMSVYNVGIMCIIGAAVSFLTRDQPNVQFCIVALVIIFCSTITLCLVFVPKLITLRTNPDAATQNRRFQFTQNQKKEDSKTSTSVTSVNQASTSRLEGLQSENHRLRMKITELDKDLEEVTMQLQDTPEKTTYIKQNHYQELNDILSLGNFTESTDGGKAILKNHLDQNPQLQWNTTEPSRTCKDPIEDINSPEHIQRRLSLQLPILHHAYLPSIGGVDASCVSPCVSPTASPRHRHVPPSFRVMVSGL

With `Cc1nc(CN2CC[C@@H](O)[C@H](O)C2)c2cc(C3CCC(C)(C)CC3)sc2n1` (single isomer, unassigned) [Ex31-1, trans-1-{[6-(4,4-dimethylcyclohexyl)-2-methylthieno[2,3-d]pyrimidin-4-yl]methyl}piperidine-3,4-diol], the EC50 turned out to be 180 nM. Besides, the “Efficacy (PAM Efficacy of GABAB)” value under setting [1] worked out at 191%.
As to `Cc1nc(CN2CCC(O)(CO)CC2)c2cc(C3CCC(C)(C)CC3)sc2n1` [Ex4], the EC50 stood at 200 nM. Moreover, the Emax under setting [1] amounted to 161%.
In the case of `Cc1nc(CN2CC[C@@H](O)[C@H](O)C2)c2cc(C3CCC(C)(C)CC3)sc2n1` [Ex5], the EC50 is 240 nM. Further, under setting [1], the Emax was found to be 176%.
The matching figures for `Cc1nc(CN2CCC(CO)(CO)CC2)c2cc(C3CCC(C)(C)CC3)sc2n1` [Ex7]: 240 nM and 139%.
The matching figures for `Cc1nc(CN2CCC(O)(C(F)(F)F)CC2)c2cc(C3CCC(C)(C)CC3)sc2n1` [Ex12]: 230 nM and 377%.
The matching figures for `Cc1nc(CN2C[C@@H](C)O[C@@H](C)C2)c2cc(C3CCC(C)(C)CC3)sc2n1` [Ex39]: 420 nM and 165%.
Consider `Cc1nc(CN2CCOC(C)(C)C2)c2cc(C3CCC(C)(C)CC3)sc2n1` [Ex40], for which the EC50 is 530 nM. Further, the Emax under setting [1] came out at 203%.
On the same counts, the results for `Cc1nc(CN2CCC3(CC2)CC3)c2cc(C3CCC(C)(C)CC3)sc2n1` [Ex43] are 260 nM and 118%.
The matching figures for `Cc1nc(CN2CCC(C)(C)CC2)c2cc(C3CCC(C)(C)CC3)sc2n1` [Ex44]: 270 nM and 119%.
Take `Cc1nc(CN2CCCC(C)(C)C2)c2cc(C3CCC(C)(C)CC3)sc2n1` [Ex45]: the EC50 is 440 nM. Further, the Emax under setting [1] amounted to 134%.
Regarding `COC1(CO)CCN(Cc2nc(C)nc3sc(C4CCC(C)(C)CC4)cc23)CC1` [Ex46], the EC50 was found to be 180 nM. Further, the Emax under setting [1] stood at 188%.
The matching figures for `Cc1nc(CN2CCC(C)(O)CC2)c2cc(C3CCC(C)(C)CC3)sc2n1` [Ex47]: 120 nM and 240%.
The matching figures for `CCC1(O)CCN(Cc2nc(C)nc3sc(C4CCC(C)(C)CC4)cc23)CC1` [Ex48]: 260 nM and 238%.
The matching figures for `COCC1(O)CCN(Cc2nc(C)nc3sc(C4CCC(C)(C)CC4)cc23)CC1` [Ex50]: 540 nM and 222%.
In the case of `Cc1nc(CN2CCC(O)C(F)C2)c2cc(C3CCC(C)(C)CC3)sc2n1` (stereo not drawn) [Ex51], the EC50 was 150 nM. In addition, under setting [1], the Emax came out at 249%.
The matching figures for `Cc1nc(CN2CCC(O)CC2)c2cc(C3CCC(C)(C)CC3)sc2n1` [Ex52, 1-{[6-(4,4-dimethylcyclohexyl)-2-methylthieno[2,3-d]pyrimidin-4-yl]methyl}piperidin-4-ol hydrochloride]: 170 nM and 259%.
The matching figures for `Cc1nc(CN2CC[C@@H](O)[C@@H](O)C2)c2cc(C3CCC(C)(C)CC3)sc2n1` [Ex54]: 320 nM and 88%.
The matching figures for `Cc1nc(CN2CCC(F)(F)CC2)c2cc(C3CCC(C)(C)CC3)sc2n1` [Ex55]: 250 nM and 175%.
In the case of `Cc1nc(CN2CCC(C(F)F)CC2)c2cc(C3CCC(C)(C)CC3)sc2n1` [Ex61], the EC50 was found to be 240 nM. The Emax under setting [1] was found to be 160%.
As to `Cc1nc(CN2CCC[C@@H](O)C2)c2cc(C3CCC(C)(C)CC3)sc2n1` [Ex72], the EC50 turned out to be 89 nM. Moreover, the Emax under setting [1] worked out at 289%.
The matching figures for `Cc1nc(CN2CCC[C@H](O)C2)c2cc(C3CCC(C)(C)CC3)sc2n1` [Ex73]: 85 nM and 272%.
The matching figures for `Cc1nc(CN2CCSCC2)c2cc(C3CCC(C)(C)CC3)sc2n1` [Ex74]: 190 nM and 244%.
On the same counts, the results for `Cc1nc(CN2CCOCC2(C)C)c2cc(C3CCC(C)(C)CC3)sc2n1` [Ex79] are 46 nM and 230%.
For the compound `Cc1nc(CN2CCOC[C@H]2CO)c2cc(C3CCC(C)(C)CC3)sc2n1` [Ex101], the EC50 is 380 nM. Besides, under setting [1], the Emax came to 134%.
Consider `Cc1nc(CN2CCOC[C@@H]2CO)c2cc(C3CCC(C)(C)CC3)sc2n1` [Ex102], for which the EC50 stood at 400 nM. In addition, the Emax under setting [1] is 127%.
The matching figures for `Cc1nc(CN2CC[C@@H](O)[C@](C)(O)C2)c2cc(C3CCC(C)(C)CC3)sc2n1` [Ex104]: 79 nM and 218%.
On the same counts, the results for `Cc1nc(CN2CCS(=O)(=O)CC2)c2cc(C3CCC4(CC3)CC4)sc2n1` [Ex108, 4-[(1,1-dioxidothiomorpholin-4-yl)methyl]-2-methyl-6-(spiro[2.5]octa-6-yl)thieno[2,3-d]pyrimidine] are 200 nM and 176%.
For the compound `Cc1nc(CN2CCC(O)C(CO)C2)c2cc(C3CCC(C)(C)CC3)sc2n1` (stereo not drawn) [Ex127], the EC50 came to 110 nM. Also, the Emax under setting [1] was 338%.
As for `Cc1nc(CN2CCOCC2)c2cc(C3CCC(C)(C)CC3)sc2n1` [Ex132], the EC50 amounted to 150 nM. Moreover, the Emax under setting [1] was 218%.
With `Cc1nc(CN2CCC(O)CC2(C)C)c2cc(C3CCC(C)(C)CC3)sc2n1` (stereo not drawn) [Ex142], the EC50 amounted to 7.1 nM. Besides, the Emax under setting [1] turned out to be 214%.
The matching figures for `Cc1nc(CN2CC[C@@H](O)[C@@H](F)C2)c2cc(C3CCC(C)(C)CC3)sc2n1` [Ex143]: 1200 nM and 182%.
Regarding `Cc1nc(CN2CC[C@H](O)[C@@H](F)C2)c2cc(C3CCC(C)(C)CC3)sc2n1` [Ex144], the EC50 was found to be 310 nM. Also, the Emax under setting [1] came out at 182%.
Consider `Cc1nc(CN2CCC(O)C(C)(C)C2)c2cc(C3CCC(C)(C)CC3)sc2n1` (stereo not drawn) [Ex146], for which the EC50 was determined as 100 nM. Further, the Emax under setting [1] came out at 258%.
On the same counts, the results for `Cc1nc(CN2CCN(C)CC2(C)C)c2cc(C3CCC(C)(C)CC3)sc2n1` [Ex151] are 120 nM and 168%.
The matching figures for `CC(=O)N1CCN(Cc2nc(C)nc3sc(C4CCC(C)(C)CC4)cc23)C(C)(C)C1` [Ex153, 1-(4-{[6-(4,4-dimethylcyclohexyl)-2-methylthieno[2,3-d]pyrimidin-4-yl]methyl}-3,3-dimethylpiperazin-1-yl)ethanone hydrochloride]: 59 nM and 180%.
`Cc1nc(CN2CCN(C(=O)CO)CC2(C)C)c2cc(C3CCC(C)(C)CC3)sc2n1` [Ex155, 1-(4-{[6-(4,4-dimethylcyclohexyl)-2-methylthieno[2,3-d]pyrimidin-4-yl]methyl}-3,3-dimethylpiperazin-1-yl)-2-hydroxyethanone]: the EC50 is 46 nM. Besides, under setting [1], the Emax is 159%.
